Data published in PubChem BioAssay (NCI).
“And” between values parts separate entries of the source, which are not always exact repeats. Equal values may be shown once.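 Protocol summary: plate cells (96-well), add compound at 5 concentrations, incubate 48 h, interpolate endpoints linearly. The concentration for 50% growth inhibition is given as GI50. TGI: concentration producing complete growth inhibition.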

How the values were obtained:
Test in all cases: inhibition of tumour cell growth, NCI panel, 48 h
[1] = system: 786-0 renal
[2] = system: A549 NSCLC
[3] = system: ACHN renal
[4] = system: CAKI-1 renal
[5] = system: CCRF-CEM leukemia
[6] = system: COLO 205 colon
[7] = system: DU-145 prostate
[8] = system: EKVX NSCLC
[9] = system: HCC-2998 colon
[10] = system: HCT-116 colon
[11] = system: HCT-15 colon
[12] = system: HOP-62 NSCLC
[13] = system: HOP-92 NSCLC
[14] = system: HS 578T breast
[15] = system: HT29 colon
[16] = system: IGROV1 ovarian
[17] = system: K-562 leukemia
[18] = system: KM12 colon
[19] = system: LOX IMVI melanoma
[20] = system: M14 melanoma
[21] = system: MCF7 breast
[22] = system: MDA-MB-435
[23] = system: NCI-H23 lung
[24] = system: NCI-H522 lung
[25] = system: NCI/ADR-RES ovarian
[26] = system: OVCAR-3 ovarian
[27] = system: OVCAR-5 ovarian
[28] = system: OVCAR-8 ovarian
[29] = system: PC-3 prostate
[30] = system: RPMI-8226 leukemia
[31] = system: SF-268 CNS
[32] = system: SF-295 CNS
[33] = system: SF-539 CNS
[34] = system: SK-MEL-2 melanoma
[35] = system: SK-MEL-28 melanoma
[36] = system: SK-MEL-5 melanoma
[37] = system: SN12C renal
[38] = system: SNB-19 CNS
[39] = system: SNB-75 CNS
[40] = system: SR leukemia
[41] = system: SW-620 colon
[42] = system: T-47D breast
[43] = system: TK-10 renal
[44] = system: UACC-257 melanoma
[45] = system: UACC-62 melanoma
[46] = system: UO-31 renal
[47] = system: RXF 393 renal
[48] = system: A498 renal
[49] = system: BT-549 breast
[50] = system: HL-60(TB) leukemia
[51] = system: MALME-3M melanoma
[52] = system: MDA-MB-231 breast
[53] = system: MOLT-4 leukemia
[54] = system: NCI-H226 lung
[55] = system: NCI-H460 lung
[56] = system: OVCAR-4 ovarian
[57] = system: SK-OV-3 ovarian
[58] = system: U251 CNS

Structure (SMILES): COc1cccc(C2c3cc4c(cc3OC(N3CCCC3)C2C)OCO4)c1 (stereo not drawn)
- TGI [1]: 33.7 µM
- TGI [2]: > 100 µM
- TGI [3]: 83.8 µM
- TGI [4]: 8.61 µM
- TGI [5]: 17.1 µM
- TGI [6]: 36.7 µM
- TGI [7]: 58.6 µM
- TGI [8]: 94.1 µM
- TGI [9]: 24.9 µM
- TGI [10]: 18.3 µM
- TGI [11]: > 100 µM
- TGI [12]: 19.8 µM
- TGI [13]: 12.6 µM
- TGI [14]: 34.6 µM
- TGI [15]: 18.4 µM
- TGI [16]: 38.7 µM
- TGI [17]: 5.72 µM
- TGI [18]: 33 µM
- TGI [19]: 30.5 µM
- TGI [20]: 21.1 µM
- TGI [21]: 51.5 µM
- TGI [22]: 11.6 µM
- TGI [23]: > 100 µM
- TGI [24]: 22.5 µM
- TGI [25]: 33.5 µM
- TGI [26]: 28.6 µM
- TGI [27]: 82.1 µM
- TGI [28]: > 100 µM
- TGI [29]: 46.9 µM
- TGI [30]: 24.3 µM
- TGI [31]: 76.8 µM
- TGI [32]: 37.8 µM
- TGI [33]: 24.9 µM
- TGI [34]: 23.6 µM
- TGI [35]: 32.9 µM
- TGI [36]: 18.5 µM
- TGI [37]: > 100 µM
- TGI [38]: 61.4 µM
- TGI [39]: 81 µM
- TGI [40]: 21.4 µM
- TGI [41]: > 100 µM
- TGI [42]: 70.9 µM
- TGI [43]: > 100 µM
- TGI [44]: 52.3 µM
- TGI [45]: 34.5 µM
- TGI [46]: 41.4 µM

Structure (SMILES): CC(=O)OCC1OC(n2c(-c3ccccc3)cc(-c3ccccc3)c(C#N)c2=O)C(OC(C)=O)C(OC(C)=O)C1OC(C)=O (stereo not drawn)
- GI50 [30]: 16 µM and 39.7 µM
- TGI [30]: > 100 µM
- TGI [47]: > 100 µM
- GI50 [39]: 22 µM and 98.5 µM
- TGI [39]: > 100 µM

Structure (SMILES): CCCCCCCCCCCCCCCCCc1cccc(OCOCCOC)c1CO
- TGI [1]: > 100 µM
- TGI [48]: > 100 µM
- TGI [2]: > 100 µM
- TGI [3]: > 100 µM
- TGI [49]: > 100 µM
- TGI [4]: > 100 µM
- TGI [5]: > 100 µM
- TGI [6]: > 100 µM
- TGI [8]: > 100 µM
- TGI [9]: > 100 µM
- TGI [10]: > 100 µM
- TGI [11]: > 100 µM
- TGI [50]: > 100 µM
- TGI [12]: > 100 µM
- TGI [13]: > 100 µM
- TGI [14]: > 100 µM
- TGI [15]: > 100 µM
- TGI [16]: > 100 µM
- TGI [17]: > 100 µM
- TGI [18]: > 100 µM
- TGI [20]: > 100 µM
- TGI [51]: > 100 µM
- TGI [21]: > 100 µM
- TGI [52]: > 100 µM
- TGI [22]: > 100 µM
- TGI [53]: > 100 µM
- TGI [54]: > 100 µM
- TGI [23]: > 100 µM
- TGI [55]: > 100 µM
- TGI [24]: > 100 µM
- TGI [25]: > 100 µM
- TGI [26]: > 100 µM
- TGI [56]: > 100 µM
- TGI [27]: > 100 µM
- TGI [28]: > 100 µM
- TGI [29]: > 100 µM
- TGI [30]: > 100 µM
- TGI [47]: > 100 µM
- TGI [31]: > 100 µM
- TGI [32]: > 100 µM
- TGI [33]: > 100 µM
- TGI [34]: > 100 µM
- TGI [35]: > 100 µM
- TGI [36]: > 100 µM
- TGI [57]: > 100 µM
- TGI [38]: > 100 µM
- TGI [39]: > 100 µM
- TGI [40]: > 100 µM
- TGI [41]: > 100 µM
- TGI [43]: > 100 µM
- TGI [58]: > 100 µM
- TGI [44]: > 100 µM
- TGI [45]: > 100 µM
- TGI [46]: > 100 µM

Structure (SMILES): COC(=O)c1ccc2c(c1)n(Cc1ccc3ccccc3c1)c[n+]2Cc1ccc2ccccc2c1
- GI50 [48]: 2.23 µM
- TGI [48]: 6.49 µM
- GI50 [2]: 11.3 µM
- TGI [2]: 36.8 µM
- GI50 [3]: 10.2 µM
- TGI [3]: 29.8 µM
- GI50 [5]: 1.79 µM
- TGI [5]: 4.46 µM
- GI50 [7]: 1.77 µM
- TGI [7]: 3.52 µM
- GI50 [8]: 3.01 µM
- TGI [8]: 20.4 µM
- GI50 [11]: 4.48 µM
- TGI [11]: 26.8 µM
- GI50 [12]: 1.8 µM
- TGI [12]: 4.28 µM
- GI50 [14]: 1.76 µM
- TGI [14]: 4.65 µM
- GI50 [18]: 1.37 µM
- TGI [18]: 2.83 µM
- GI50 [22]: 1.33 µM
- TGI [22]: 2.75 µM
- GI50 [54]: 1.96 µM
- TGI [54]: 4.44 µM
- GI50 [25]: 24 µM
- TGI [25]: > 100 µM
- GI50 [26]: 1.37 µM
- TGI [26]: 2.78 µM
- GI50 [27]: 2.12 µM
- TGI [27]: 13.7 µM
- GI50 [31]: 1.5 µM
- TGI [31]: 3.02 µM
- GI50 [32]: 1.86 µM
- TGI [32]: 5.56 µM
- GI50 [36]: 1.46 µM
- TGI [36]: 2.78 µM
- GI50 [57]: 2.82 µM
- TGI [57]: 13.4 µM
- GI50 [46]: 13 µM
- TGI [46]: 63.9 µM

Structure (SMILES): CC(=O)OC[C@]12CC[C@H]3[C@@H](C[C@H]4O[C@]45CC=CC(=O)[C@]35C)[C@]1(O)CC[C@@]2(O)[C@@](C)(O)C1CC(C)=C(C)C(=O)O1 (stereo partly drawn)
- TGI [7]: > 32.8 µM
- TGI [8]: > 30.4 µM
- TGI [11]: > 33.6 µM
- TGI [17]: > 100 µM
- TGI [21]: > 25.3 µM
- TGI [52]: > 23.6 µM
- TGI [53]: > 36.2 µM
- TGI [54]: > 20 µM
- GI50 [25]: > 23.6 µM
- TGI [25]: > 100 µM
- TGI [56]: > 34.9 µM
- TGI [27]: > 20.1 µM
- TGI [28]: > 32.1 µM
- TGI [29]: > 26.1 µM
- GI50 [30]: > 100 µM
- TGI [30]: > 100 µM
- TGI [32]: > 32.5 µM
- TGI [57]: > 23.7 µM
- TGI [37]: > 32 µM
- TGI [38]: > 35.4 µM
- TGI [40]: > 38 µM
- TGI [44]: > 32.8 µM
- TGI [46]: > 25 µM
